Measurements as given in PMC5831858, “Pharmacological characterisation of CR6086, a potent prostaglandin E2 receptor 4 antagonist, as a new potential disease-modifying anti-rheumatic drug” (Arthritis Research & Therapy, 2018).
Marks after values point to notes of the source that are not given here.

Key:
[1] = test system: arthritic mice (collagen-induced arthritis model); assay: CIA in mice, third study (CR6086, MTX, combination): clinical score, oedema, histology; format: in vivo, mouse; conditions: for CLINICAL SCORE (interquartile range): median (IQR)
[2] = test system: arthritic mice (collagen-induced arthritis model); assay: Serum anti-bCII IgG antibodies (ELISA), CIA mice third study; format: in vivo, mouse; conditions: end of treatment
Procedure: In a third study, mice were randomised into the following treatment groups: naive, vehicle, 30 mg/kg CR6086, 1 or 3 mg/kg MTX, with the latter administered alone or in combination with 30 mg/kg CR6086. CR6086 was administered orally once daily. MTX was administered intraperitoneally three times per week (every third day). Mice were treated with test drugs for 16 days.
At the end of the treatment period, animals were killed, and their paws were explanted and processed for histology. In the third study, the serum concentrations of immunoglobulin G (IgG) antibodies against bCII were measured by ELISA (catalogue number 2032; Chondrex, Redmond, WA, USA).

[3] = test system: arthritic rats (collagen-induced arthritis model); assay: Collagen-induced arthritis in rats: clinical score, oedema, histology; format: in vivo, rat; conditions: 15 mg/kg once daily
Procedure: (§1) Male Lewis rats were immunised by intradermal injection at the base of the tail with an emulsion containing 150 μg of bovine collagen type II (bCII) in complete Freund’s adjuvant (CFA) or received an injection with incomplete Freund’s adjuvant (sham group). Three weeks after the first immunisation, animals were boosted with the same procedure. Three days after booster injection, arthritis had developed in all animals but the sham group. Oedema was assessed via plethysmometer (Ugo Basile, Varese, Italy), and the animals were then randomised to treatment groups. Oedema measurement was performed again after 7 and 14 days of treatment. Animals were blindly scored by two different investigators for clinical signs of arthritis (redness, swelling, pain of hind limb joints) as follows: 0 = normal; 1 = mild but definite redness and swelling of the ankle or wrist or individual digits, regardless of the number of affected digits; 2 = moderate redness and swelling of ankle or wrist; 3 = severe redness and swelling of the entire paw including digits; and 4 = maximally inflamed limb with involvement of multiple joints. The mean of the scores assigned by the investigators was calculated.
Three different experiments in rat CIA are reported: a dose-response study, as well as two comparative studies vs the COX-2 inhibitor rofecoxib and the Janus kinase (JAK) inhibitor tofacitinib, respectively.
Briefly, the paws were fixed in 10% neutral buffered formalin (Bio-Optica, Milan, Italy) and subsequently decalcified in EDTA for 4 weeks. Samples were dehydrated in an ethanol series and embedded in paraffin. At least three non-consecutive sections for each paw were blindly scored at the level of the tarsus, metatarsus and calcaneus for the following histological features: synovial oedema, pannus, synovial inflammatory cell infiltrate, cartilage damage, osteolysis and woven bone. Based on these histological features, a synovial score (synovial oedema, plus synovial inflammatory cell infiltrate, plus pannus), a bone score (woven bone plus osteolysis) and a total score were calculated. Two independent pathologists performed histopathology on blinded slides. The data of right and left hind limbs were summed for each rat.

[4] = test system: arthritic rats (collagen-induced arthritis model); assay: Mechanical hyperalgesia (PAM) in CIA rats; format: in vivo, rat; conditions: 15 mg/kg, mean ± SEM
Procedure: as §1
In the comparative experiment vs rofecoxib, mechanical hyperalgesia was assessed at the end of treatment by using a digital pressure application measurement (PAM) device (Ugo Basile). Increasing pressure was applied to the lateral side of the knee until the animal attempted to escape or vocalised. The force required to elicit this response was measured in grams (gram-force). An optimal stimulus increase rate of 100 g/second was used, and mechanical thresholds were reached after approximately 10 seconds. This increase was visualised with a rate meter on the built-in display, so the pressure applied was visually controlled. At the end of the experiment, animals were killed, and their hind paws were explanted and processed for histology.

[5] = test system: arthritic mice (collagen-induced arthritis model); assay: CIA in mice, first study: clinical score and paw swelling; format: in vivo, mouse; conditions: 10 days; CR6086 30 and 60 mg/kg, naproxen 60 mg/kg oral once daily; etanercept 10 mg/kg i.p. every other day
Procedure: Male DBA/1 mice were immunised by intradermal injection at the base of the tail with an emulsion of 200 μg of bCII in CFA containing 3 mg/ml Mycobacterium tuberculosis. Non-immunised mice served as the negative control of disease. Animals were monitored by visual inspection for appearance of peripheral oedema. […] Upon onset, animals were recruited and randomised. Recruitment was given a cut-off at day 40. Upon recruitment, arthritis clinical score was assigned, and oedema was measured via caliper.
(§2) In a first study, mice were randomised into the following treatment groups: vehicle, 30 mg/kg CR6086, 60 mg/kg CR6086, 60 mg/kg naproxen and 10 mg/kg etanercept. Animals received the test drugs for 10 days. CR6086 and naproxen were administered orally once daily, whereas etanercept was administered intraperitoneally every other day. Animals treated with vehicle, 60 mg/kg CR6086, naproxen and etanercept were additionally analysed for the proportion of populations of Th17 cells, Th1 cells, regulatory T cells, B cells, macrophages, neutrophils and dendritic cells by fluorescence-activated cell sorting (FACS) after collection of blood, draining lymph nodes and joints.
Oedema measurement was performed every day before treatment, and all animals were blindly scored for clinical signs of arthritis as follows: 0 = normal; 1 = slight swelling and/or erythema; 2 = pronounced oedematous swelling; and 3 = ankyloses and severe swelling. A score of 0.5 was given to swollen toe/toes or when inflammation was localised to one part of the foot. Each limb was measured separately, with a final score based on the sum of the scores from all four paws.

[6] = test system: arthritic mice (collagen-induced arthritis model); assay: FACS analysis of cell populations in the joint, CIA mice; format: in vivo, mouse; conditions: CR6086 60 mg/kg, naproxen 60 mg/kg, etanercept 10 mg/kg, mean ± SEM
Procedure: as §2

With `CN(Cc1cnc2nc(N)nc(N)c2n1)c1ccc(C(=O)N[C@@H](CCC(=O)O)C(=O)O)cc1` [MTX, methotrexate] the “effect on joint histopathology” value ([1]; 16 days, 30 mg/kg CR6086, 3 mg/kg MTX, alone or combined) was “significantly improved all histological features of arthritis”, the “CLINICAL SCORE (interquartile range)” value ([1]; DAY 0, 1 mg/kg MTX) was 3.0 (2.4 – 3.3) * and the “CLINICAL SCORE (interquartile range)” value ([1]; DAY 0, 3 mg/kg MTX) was 2.0 (2.0 – 2.0) *. The “CLINICAL SCORE (interquartile range)” value ([1]; DAY 1, 1 mg/kg MTX) was 2.8 (2.0 – 3.0), the “CLINICAL SCORE (interquartile range)” value ([1]; DAY 1, 3 mg/kg MTX) was 2.3 (2.0 – 3.0) and the “CLINICAL SCORE (interquartile range)” value ([1]; DAY 2, 1 mg/kg MTX) was 3.0 (3.0 – 4.0). For the same molecule, the “CLINICAL SCORE (interquartile range)” value ([1]; DAY 2, 3 mg/kg MTX) was 3.0 (2.1 – 3.8), the “CLINICAL SCORE (interquartile range)” value ([1]; DAY 3, 1 mg/kg MTX) was 4.0 (3.0 – 4.8) and the “CLINICAL SCORE (interquartile range)” value ([1]; DAY 3, 3 mg/kg MTX) was 3.0 (2.3 – 6.0). The “CLINICAL SCORE (interquartile range)” value ([1]; DAY 4, 1 mg/kg MTX) was 3.5 (3.0 – 5.5), the “CLINICAL SCORE (interquartile range)” value ([1]; DAY 4, 3 mg/kg MTX) was 4.0 (2.0 – 5.5) and the “CLINICAL SCORE (interquartile range)” value ([1]; DAY 5, 1 mg/kg MTX) was 5.0 (3.4 – 6.3). For the same molecule, the “CLINICAL SCORE (interquartile range)” value ([1]; DAY 5, 3 mg/kg MTX) was 3.5 (2.4 – 4.8), the “CLINICAL SCORE (interquartile range)” value ([1]; DAY 6, 1 mg/kg MTX) was 4.8 (3.3 – 8.1) and the “CLINICAL SCORE (interquartile range)” value ([1]; DAY 6, 3 mg/kg MTX) was 4.0 (2.0 – 5.5). For the same molecule, the “CLINICAL SCORE (interquartile range)” value ([1]; DAY 7, 1 mg/kg MTX) was 4.5 (2.8 – 7.5), the “CLINICAL SCORE (interquartile range)” value ([1]; DAY 7, 3 mg/kg MTX) was 4.5 (2.6 – 6.0) and the “CLINICAL SCORE (interquartile range)” value ([1]; DAY 8, 1 mg/kg MTX) was 5.5 (3.8 – 7.6). For the same molecule, the “CLINICAL SCORE (interquartile range)” value ([1]; DAY 8, 3 mg/kg MTX) was 4.3 (2.4 – 6.4), the “CLINICAL SCORE (interquartile range)” value ([1]; DAY 9, 1 mg/kg MTX) was 5.0 (3.3 – 7.0) and the “CLINICAL SCORE (interquartile range)” value ([1]; DAY 9, 3 mg/kg MTX) was 4.5 (3.0 – 5.0). The “CLINICAL SCORE (interquartile range)” value ([1]; DAY 10, 1 mg/kg MTX) was 6.5 (3.0 – 7.3), the “CLINICAL SCORE (interquartile range)” value ([1]; DAY 10, 3 mg/kg MTX) was 5.0 (2.5 – 5.5) and the “CLINICAL SCORE (interquartile range)” value ([1]; DAY 11, 1 mg/kg MTX) was 7.3 (4.4 – 7.5). The “CLINICAL SCORE (interquartile range)” value ([1]; DAY 11, 3 mg/kg MTX) was 5.0 (2.5 – 6.0), the “CLINICAL SCORE (interquartile range)” value ([1]; DAY 12, 1 mg/kg MTX) was 6.8 (5.3 – 7.5) and the “CLINICAL SCORE (interquartile range)” value ([1]; DAY 12, 3 mg/kg MTX) was 5.5 (2.0 – 7.5). For the same molecule, the “CLINICAL SCORE (interquartile range)” value ([1]; DAY 13, 1 mg/kg MTX) was 6.3 (4.5 – 7.0), the “CLINICAL SCORE (interquartile range)” value ([1]; DAY 13, 3 mg/kg MTX) was 6.0 (2.0 – 7.0) and the “CLINICAL SCORE (interquartile range)” value ([1]; DAY 14, 1 mg/kg MTX) was 7.3 (5.0 – 7.6). The “CLINICAL SCORE (interquartile range)” value ([1]; DAY 14, 3 mg/kg MTX) was 4.5 (2.0 – 6.0), the “CLINICAL SCORE (interquartile range)” value ([1]; DAY 15, 1 mg/kg MTX) was 6.5 (5.0 – 7.5) and the “CLINICAL SCORE (interquartile range)” value ([1]; DAY 15, 3 mg/kg MTX) was 4.5 (3.1 – 7.0). The “CLINICAL SCORE (interquartile range)” value ([1]; DAY 16, 1 mg/kg MTX) was 6.5 (5.5 – 8.3), the “CLINICAL SCORE (interquartile range)” value ([1]; DAY 16, 3 mg/kg MTX) was 4.5 (2.3 – 5.4) and the “Anti-collagen II” value ([2]; 1 mg/kg MTX) was 483.83 ± 102.82 µg/mL. For the same molecule, the “Anti-collagen II” value ([2]; 3 mg/kg MTX) was 242.46 ± 79.35 µg/mL.
With `CS(=O)(=O)c1ccc(C2=C(c3ccccc3)C(=O)OC2)cc1` [rofecoxib, reference compound] the “effect on clinical score” value [3] was “small effect”, the “effect on structural and inflammatory parameters (oedema, histology)” value ([3]; 14 days) was “improved to a slight but significant extent the inflammatory parameters (not the structural ones)” and the “Mechanical hyperalgesia, Day 0” value ([4]; Day 0) was 943.70 ± 73.42^a gram-force. The “Mechanical hyperalgesia, Day 7” value ([4]; Day 7) was 673.18 ± 53.76^b gram-force and the “Mechanical hyperalgesia, Day 14” value ([4]; Day 14) was 799.68 ± 61.15^b,c gram-force.
For etanercept, the “effect on disease parameters (visual clinical score, paw swelling) vs vehicle” value [5] was “significantly improved”, the “B cells, Percentage of total cells” value [6] was 5.74 ± 0.68% and the “Dendritic cells, Percentage of total cells” value [6] was 1.51 ± 0.18%. The “Macrophages, Percentage of total cells” value [6] was 12.31 ± 5.19%, the “Neutrophils, Percentage of total cells” value [6] was 10.53 ± 2.81% and the “Th1, Percentage of total cells” value [6] was 0.20 ± 0.05^a %. For the same molecule, the “Th17, Percentage of total cells” value [6] was 0.16 ± 0.08% and the “Treg, Percentage of total cells” value [6] was 0.39 ± 0.10%.
